Tests used:
Human 5-lipoxygenase = target: T1, Human 5-lipoxygenase (Homo sapiens, UniProt P09917); assay: Activity of compounds against 5-LO enzyme (LTB4 measurement and/or fluorescence method); type: biochemical; conditions: for IC50: 6 or 11 point dose response in duplicate; for inhibition at 10 µM: 5-LO, single concentration of 10 uM in duplicate
T1 construct: purchased Cayman 60402; host or cells: insect cells
T1 sequence (P09917 1-674): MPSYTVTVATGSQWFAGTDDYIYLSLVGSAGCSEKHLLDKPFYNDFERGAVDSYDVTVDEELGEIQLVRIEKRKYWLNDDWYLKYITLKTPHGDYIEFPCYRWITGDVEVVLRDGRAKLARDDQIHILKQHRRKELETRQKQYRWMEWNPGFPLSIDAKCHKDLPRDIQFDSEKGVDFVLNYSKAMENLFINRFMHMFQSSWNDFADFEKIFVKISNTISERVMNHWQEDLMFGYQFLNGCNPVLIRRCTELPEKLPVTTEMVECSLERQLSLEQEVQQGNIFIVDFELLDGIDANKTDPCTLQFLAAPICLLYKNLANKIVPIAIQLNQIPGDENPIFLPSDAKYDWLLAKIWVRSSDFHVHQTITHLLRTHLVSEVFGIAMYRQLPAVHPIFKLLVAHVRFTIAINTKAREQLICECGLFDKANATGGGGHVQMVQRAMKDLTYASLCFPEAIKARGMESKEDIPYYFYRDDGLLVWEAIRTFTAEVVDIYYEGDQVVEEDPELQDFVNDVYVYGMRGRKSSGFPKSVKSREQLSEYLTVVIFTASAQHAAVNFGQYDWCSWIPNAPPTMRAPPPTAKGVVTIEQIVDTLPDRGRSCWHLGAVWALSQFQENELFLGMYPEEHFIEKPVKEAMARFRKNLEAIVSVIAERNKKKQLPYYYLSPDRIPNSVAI
Summary of the method: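 Insect-cell human 5-LO preincubated 15 min at RT with compound (pH 7.4, 2 mM CaCl2, 0.1 mM ATP, 1% DMSO), then 3 uM arachidonic acid for 5 min at 37 °C; LTB4 quantified by EIA and/or LC/MS/MS. Alternatively, fluorescence of 5-HpETE via H2DCFDA, 100 uM ATP, 3 uM arachidonic acid, 5 min, RT; single 10 uM screen then 6- or 11-point IC50.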

SMILES: CCc1nc2cccnn2c1CNc1ccc(N2CCN(c3ccc(F)cc3)CC2)cc1 [compound 396, N-((2-Ethylimidazo[1,2-b]pyridazin-3-yl)methyl)-4-(4-(4-fluorophenyl)piperazin-1-yl)aniline]
- melting point: 192.7 °C
- IC50 (Human 5-lipoxygenase): < 1000 nM

SMILES: CCc1nc2cc(C)ccn2c1C(=O)NCc1ccc(N2CCOCC2)cc1 [compound 94, 2-Ethyl-7-methyl-N-(4-morpholinobenzyl)imidazo[1,2-a]pyridine-3-carboxamide]
- melting point: 190 °C
- inhibition at 10 µM (Human 5-lipoxygenase): < 40%

SMILES: CCc1nc2cc(Cl)ccn2c1C(=O)NCc1ccc(N2CC(COc3ccc(F)cc3)OC2=O)cc1 (stereo not shown) [compound 378, 7-chloro-2-ethyl-N-(4-(5-((4-fluorophenoxy)methyl)-2-oxooxazolidin-3-yl)benzyl)imidazo[1,2-a]pyridine-3-carboxamide]
- melting point: > 97.1 °C
- inhibition at 10 µM (Human 5-lipoxygenase): < 40%

SMILES: CCc1nc2cc(Cl)ccn2c1C(=O)NCc1ccc(CC2CCOCC2)cc1 [compound 359, 7-chloro-2-ethyl-N-(4-((tetrahydro-2H-pyran-4-yl)methyl)benzyl)imidazo[1,2-a]pyridine-3-carboxamide]
- melting point: > 125.9 °C (dec.)
- inhibition at 10 µM (Human 5-lipoxygenase): < 40%

SMILES: CCc1nc2cc(C(F)(F)F)ccn2c1C(=O)NCc1ccc(N2CCOCC2)cc1 [compound 290, 2-Ethyl-N-(4-morpholinobenzyl)-7-(trifluoromethyl)imidazo[1,2-a]pyridine-3-carboxamide]
- melting point: 174.1 °C
- inhibition at 10 µM (Human 5-lipoxygenase): < 40%

SMILES: Cc1nc2ccc(Cl)cn2c1C(=O)NCc1ccc(OC(F)(F)F)cc1 [compound 184, 6-Chloro-2-methyl-N-(4-(trifluoromethoxy)benzyl)imidazo[1,2-a]pyridine-3-carboxamide]
- melting point: 192 to 193 °C
- inhibition at 10 µM (Human 5-lipoxygenase): < 40%

SMILES: CCc1nc2cc(C)ccn2c1C(=O)NCc1ccc(N2CCN(c3ccc(F)cc3)CC2)cc1 [compound 220, 2-Ethyl-N-(4-(4-(4-fluorophenyl)piperazin-1-yl)benzyl)-7-methylimidazo[1,2-a]pyridine-3-carboxamide]
- melting point: 203.7 °C
- inhibition at 10 µM (Human 5-lipoxygenase): 40 to 69%

SMILES: CCc1nc2c[n+]([O-])ccn2c1C(=O)NCc1ccc(OC(F)(F)F)cc1 [compound 142, 2-Ethyl-3-((4-(trifluoromethoxy)benzyl)carbamoyl)imidazo[1,2-a]pyrazine 7-oxide]
- melting point: 215 to 216 °C
- inhibition at 10 µM (Human 5-lipoxygenase): 40 to 69%

SMILES: CCc1nc2ccccn2c1C(=O)NCc1ccc(N2CCN(c3ccc(OC(F)(F)F)cc3)CC2)cc1 [compound 181, 2-Ethyl-N-(4-(4-(4-(trifluoromethoxy)phenyl)piperazin-1-yl)benzyl)imidazo[1,2-a]pyridine-3-carboxamide]
- melting point: 178 to 179 °C
- inhibition at 10 µM (Human 5-lipoxygenase): > 69%
- IC50 (Human 5-lipoxygenase): 1000 to 20000 nM

SMILES: CCc1nc2ccc(Cl)cn2c1CNc1ccc(N2CCC(c3ccc(Cl)cc3)CC2)cc1 [compound 392, N-((6-chloro-2-ethylimidazo[1,2-a]pyridin-3-yl)methyl)-4-(4-(4-chlorophenyl)piperidin-1-yl)aniline]
- melting point: 159.5 °C
- IC50 (Human 5-lipoxygenase): 1000 to 20000 nM

SMILES: CCc1nc2cc(Cl)ccn2c1C(=O)NCc1ccc(N2CCN(Cc3ccc(OC(F)(F)F)cc3)CC2)cc1 [compound 157, 7-Chloro-2-ethyl-N-(4-(4-(4-(trifluoromethoxy)benzyl)piperazin-1-yl)benzyl)imidazo[1,2-a]pyridine-3-carboxamide]
- melting point: 137.1 to 137.6 °C
- inhibition at 10 µM (Human 5-lipoxygenase): > 69%
- IC50 (Human 5-lipoxygenase): 1000 to 20000 nM

SMILES: CCc1nc2ccc(Cl)cn2c1C(=O)NCc1ccc(N2CCC(F)(F)CC2)cc1 [compound 235, 6-chloro-N-(4-(4,4-difluoropiperidin-1-yl)benzyl)-2-ethylimidazo[1,2-a]pyridine-3-carboxamide]
- melting point: 194.2 °C
- inhibition at 10 µM (Human 5-lipoxygenase): < 40%

SMILES: CCc1nc2cc(Cl)ccn2c1C(=O)NCc1ccc(N2CCC(c3ccc(F)cc3)CC2)cc1 [compound 250, 7-Chloro-2-ethyl-N-(4-(4-(4-fluorophenyl)piperidin-1-yl)benzyl)imidazo[1,2-a]pyridine-3-carboxamide]
- melting point: 182.7 °C
- inhibition at 10 µM (Human 5-lipoxygenase): 40 to 69%

SMILES: CCc1nc2ccc(Cl)cn2c1CO [compound 146, (6-Chloro-2-ethylimidazo[1,2-a]pyridin-3-yl)methanol]
- melting point: 173.2 to 174.2 °C
- inhibition at 10 µM (Human 5-lipoxygenase): < 40%

SMILES: CCc1nc2ccc(Cl)cn2c1C(=O)NCCc1ccc(Cl)cc1 [compound 137, 6-Chloro-N-(4-chlorophenethyl)-2-ethylimidazo[1,2-a]pyridine-3-carboxamide]
- melting point: 158 to 159 °C
- inhibition at 10 µM (Human 5-lipoxygenase): 40 to 69%

SMILES: CCc1nc2ncccn2c1C(=O)NCc1ccc(-c2ccc(Cl)cc2)cc1 [compound 386, N-((4′-Chloro-[1,1′-biphenyl]-4-yl)methyl)-2-ethylimidazo[1,2-a]pyrimidine-3-carboxamide]
- melting point: 184.8 °C
- IC50 (Human 5-lipoxygenase): 1000 to 20000 nM

SMILES: CCc1nc2cnccn2c1C(=O)NCc1ccc(OC(F)(F)F)cc1 [compound 141, 2-Ethyl-N-(4-(trifluoromethoxy)benzyl)imidazo[1,2-a]pyrazine-3-carboxamide]
- melting point: 176 to 177 °C
- inhibition at 10 µM (Human 5-lipoxygenase): < 40%

SMILES: CCc1nc2cc(Cl)ccn2c1C(=O)NCc1ccc(N2C=CC(=O)CC2)cc1 [compound 201, 7-Chloro-2-ethyl-N-(4-(4-oxo-3,4-dihydropyridin-1(2H)-yl)benzyl)imidazo[1,2-a]pyridine-3-carboxamide]
- melting point: 201.3 to 202.8 °C
- inhibition at 10 µM (Human 5-lipoxygenase): < 40%

SMILES: CCc1nc2ccc(Cl)cn2c1C(=O)NCc1ccc(C2CCN(C(=O)Cc3ccc(F)cc3)CC2)cc1 [compound 327, 6-chloro-2-ethyl-N-(4-(1-(2-(4-fluorophenyl)acetyl)piperidin-4-yl)benzyl)imidazo[1,2-a]pyridine-3-carboxamide]
- melting point: 216.2 to 220.7 °C
- inhibition at 10 µM (Human 5-lipoxygenase): 40 to 69%

SMILES: CCc1nc2cc(Cl)ccn2c1C(=O)NCc1ccc(N2CCC(COc3ccc(F)cc3)CC2)cc1 [compound 245, 7-Chloro-2-ethyl-N-(4-(4-((4-fluorophenoxy)methyl)piperidin-1-yl)benzyl)imidazo[1,2-a]pyridine-3-carboxamide]
- melting point: 186.5 °C
- inhibition at 10 µM (Human 5-lipoxygenase): < 40%

SMILES: CCc1nc2ccc(Cl)cn2c1C(=O)OCc1ccc(-c2ccccc2)cc1 [compound 162, [1,1′-Biphenyl]-4-ylmethyl 6-chloro-2-ethylimidazo[1,2-a]pyridine-3-carboxylate]
- melting point: 122.3 to 123 °C
- inhibition at 10 µM (Human 5-lipoxygenase): 40 to 69%

SMILES: CCc1nc2cc(Cl)ccn2c1C(=O)NCc1ccc(N2CCC(F)(F)CC2)cc1 [compound 236, 7-Chloro-N-(4-(4,4-difluoropiperidin-1-yl)benzyl)-2-ethylimidazo[1,2-a]pyridine-3-carboxamide]
- melting point: 166.3 °C
- inhibition at 10 µM (Human 5-lipoxygenase): 40 to 69%

SMILES: CCc1nc2cc(Cl)ccn2c1C(=O)NCc1cccc(-c2ccc(OC(F)(F)F)cc2)c1 [compound 204, 7-Chloro-2-ethyl-N-((4′-(trifluoromethoxy)biphenyl-3-yl)methyl)imidazo[1,2-a]pyridine-3-carboxamide]
- melting point: 192.6 °C
- inhibition at 10 µM (Human 5-lipoxygenase): < 40%

SMILES: CCc1nc2cc(Cl)ccn2c1C(=O)NCc1ccc(C(F)(F)F)cc1 [compound 155, 7-Chloro-2-ethyl-N-(4-(trifluoromethyl)benzyl)imidazo[1,2-a]pyridine-3-carboxamide]
- melting point: 196.2 to 196.9 °C
- inhibition at 10 µM (Human 5-lipoxygenase): < 40%

SMILES: CCc1nc2ccc(Cl)cn2c1C(=O)N1CCC(Oc2ccc(OC(F)(F)F)cc2)CC1 [compound 384, (6-Chloro-2-ethylimidazo[1,2-a]pyridin-3-yl)(4-(4-(trifluoromethoxy)phenoxy)piperidin-1-yl)methanone]
- melting point: 80.7 °C
- IC50 (Human 5-lipoxygenase): 1000 to 20000 nM

SMILES: CCc1nc2ccc(C(F)(F)F)cn2c1C(=O)NCc1ccc(N2CCOCC2)cc1 [compound 273, 2-Ethyl-N-(4-morpholinobenzyl)-6-(trifluoromethyl)imidazo[1,2-a]pyridine-3-carboxamide]
- melting point: 207.6 °C
- inhibition at 10 µM (Human 5-lipoxygenase): < 40%

SMILES: CCc1nc2cc(Cl)ccn2c1C(=O)NCc1ccc(N2CCC(O)CC2)cc1 [compound 199, 7-Chloro-2-ethyl-N-(4-(4-hydroxypiperidin-1-yl)benzyl)imidazo[1,2-a]pyridine-3-carboxamide]
- melting point: 179.1 to 180 °C
- inhibition at 10 µM (Human 5-lipoxygenase): < 40%

SMILES: CCc1nc2ccc(Cl)cn2c1-c1nc(Cc2ccc(OC(F)(F)F)cc2)no1 [compound 165, 5-(6-Chloro-2-ethylimidazo[1,2-a]pyridin-3-yl)-3-(4-(trifluoromethoxy)benzyl)-1,2,4-oxadiazole]
- melting point: 146.4 to 146.9 °C
- inhibition at 10 µM (Human 5-lipoxygenase): < 40%

From US9029389B2 (Institut Pasteur Korea, priority 2011, dated 2015)
